Laboratory results as given in ChEMBL document CHEMBL1201862, “PubChem BioAssay data set” (2004).
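48-hour exposure; five concentrations; linearly interpolated endpoints. GI50 = concentration required for 50% inhibition of growth.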 The source made the active and inactive calls. Cut-off read from the data, not from the text of the source: active = GI50 up to about 1.1 µM and inactive = higher. Non-standard residues stand in square brackets, D forms with d. Residues, ends and D or L forms follow the SMILES beside them. ξ: configuration not given here. *: point of attachment. ξHyp = O=C(O)C1CC(O)CN1; Cbz = O=C(OCc1ccccc1)*

Experiments:
Assay in all cases: growth of human tumour cells (NCI), 48 h
A549 = tested on: A549
CCRF-CEM = tested on: CCRF-CEM
COLO 205 = tested on: COLO 205
HOP-62 = tested on: HOP-62
IGROV-1 = tested on: IGROV-1
K562 = tested on: K562
KM12 = tested on: KM12
M14 = tested on: M14
MOLT-4 = tested on: MOLT-4
NCI-H226 = tested on: NCI-H226
NCI/ADR-RES = tested on: NCI/ADR-RES
OVCAR-3 = tested on: OVCAR-3
OVCAR-5 = tested on: OVCAR-5
RPMI-8226 = tested on: RPMI-8226
SF-268 = tested on: SF-268
SK-MEL-28 = tested on: SK-MEL-28
SN12C = tested on: SN12C
UACC-257 = tested on: UACC-257
HOP-92 = tested on: HOP-92
NCI-H23 = tested on: NCI-H23

Measured: GI50

COc1ccc(NC(=S)Nc2cc(C)cc(C)n2)cc1
inactive: A549 > 100 µM | CCRF-CEM > 100 µM | COLO 205 > 100 µM | HOP-62 > 100 µM | IGROV-1 > 100 µM | K562 > 100 µM | KM12 > 100 µM | M14 > 100 µM | MOLT-4 > 100 µM | NCI-H226 > 100 µM | NCI/ADR-RES > 100 µM | OVCAR-3 > 100 µM | OVCAR-5 > 100 µM | RPMI-8226 > 100 µM | SF-268 > 100 µM | SK-MEL-28 > 100 µM | SN12C > 100 µM | UACC-257 > 100 µM

Cc1ccc(C2(c3ccc(C)cc3)SC(=C(C#N)C#N)c3ccccc32)cc1
inactive: A549 > 100 µM | CCRF-CEM 58.3 µM | HOP-62 31.4 µM | HOP-92 > 100 µM | IGROV-1 > 100 µM | K562 7.67 µM | KM12 23 µM | M14 > 100 µM | MOLT-4 21.1 µM | NCI-H226 > 100 µM | NCI-H23 > 100 µM | NCI/ADR-RES 45.6 µM | OVCAR-3 > 100 µM | OVCAR-5 > 100 µM | SF-268 > 100 µM | SK-MEL-28 > 100 µM | SN12C > 100 µM

S=c1nc(Nc2ccccc2)c2c3c(sc2[nH]1)CCCC3
inactive: COLO 205 > 100 µM | HOP-62 > 100 µM | IGROV-1 > 100 µM | K562 > 100 µM | KM12 > 100 µM | MOLT-4 > 100 µM | NCI-H226 > 100 µM | NCI-H23 > 100 µM | NCI/ADR-RES > 100 µM | OVCAR-3 > 100 µM | OVCAR-5 > 100 µM | RPMI-8226 > 100 µM | SF-268 > 100 µM | SK-MEL-28 > 100 µM | SN12C 56.4 µM | UACC-257 > 100 µM

CC1CCCc2c(C#N)c(N)nc(-c3ccc(Cl)cc3)c21 (stereo not drawn)
inactive: CCRF-CEM 22.8 µM | COLO 205 18.8 µM | HOP-62 5.73 µM | IGROV-1 14.4 µM | K562 8.69 µM | KM12 17.9 µM | M14 19.2 µM | MOLT-4 7.69 µM | NCI-H226 14.5 µM | NCI-H23 16.8 µM | NCI/ADR-RES 20.6 µM | OVCAR-3 12.6 µM | OVCAR-5 15.6 µM | RPMI-8226 11.1 µM | SF-268 31.1 µM | SK-MEL-28 27.6 µM | SN12C 20.3 µM | UACC-257 25.4 µM

C[C@@]1(O)C2C3CC4C5C3C1[C@](O)(C42)[C@H]5Br (stereo partly drawn)
inactive: A549 > 100 µM | CCRF-CEM > 100 µM | COLO 205 > 100 µM | HOP-62 > 100 µM | HOP-92 > 100 µM | IGROV-1 > 100 µM | K562 > 100 µM | KM12 > 100 µM | M14 > 100 µM | MOLT-4 > 100 µM | NCI-H23 > 100 µM | NCI/ADR-RES > 100 µM | OVCAR-3 > 100 µM | OVCAR-5 > 100 µM | SF-268 > 100 µM | SK-MEL-28 > 100 µM | SN12C > 100 µM | UACC-257 > 100 µM

CC1CNc2ccccc2N=C1NN (stereo not drawn)
inactive: A549 > 100 µM | CCRF-CEM 22.7 µM | COLO 205 > 100 µM | HOP-62 > 100 µM | IGROV-1 > 100 µM | K562 > 100 µM | KM12 > 100 µM | M14 > 100 µM | NCI-H226 > 100 µM | NCI-H23 > 100 µM | NCI/ADR-RES > 100 µM | OVCAR-3 > 100 µM | OVCAR-5 > 100 µM | RPMI-8226 > 36.5 µM | SF-268 > 100 µM | SK-MEL-28 > 100 µM | SN12C > 100 µM | UACC-257 > 100 µM

O=C(Cn1c2ccc(Br)cc2c2nc3ccccc3nc21)N/N=C/c1ccccc1
inactive: A549 > 100 µM | COLO 205 > 100 µM | HOP-62 19.1 µM | IGROV-1 > 100 µM | K562 43.4 µM | KM12 > 100 µM | M14 > 100 µM | MOLT-4 > 10 µM | NCI-H226 > 100 µM | NCI-H23 > 100 µM | NCI/ADR-RES > 100 µM | OVCAR-3 > 100 µM | OVCAR-5 > 100 µM | RPMI-8226 > 10 µM | SF-268 87.3 µM | SK-MEL-28 > 100 µM | SN12C > 100 µM | UACC-257 > 100 µM

COC(=O)C1Cc2cc3c(cc2C1=O)CCCC3 (stereo not drawn)
inactive: A549 > 100 µM | CCRF-CEM 37.2 µM | COLO 205 > 100 µM | HOP-62 48.6 µM | IGROV-1 67.5 µM | K562 33.6 µM | KM12 34.3 µM | M14 > 100 µM | MOLT-4 41.2 µM | NCI-H226 23.8 µM | NCI-H23 43.2 µM | NCI/ADR-RES 48.9 µM | OVCAR-3 > 100 µM | OVCAR-5 72.9 µM | RPMI-8226 45.9 µM | SF-268 62.1 µM | SK-MEL-28 > 100 µM | SN12C 77.4 µM | UACC-257 > 100 µM

CCSCCCN(CCCSCC)CCCSCC
inactive: A549 > 100 µM | CCRF-CEM > 100 µM | COLO 205 > 100 µM | HOP-62 > 100 µM | HOP-92 5.16 µM | IGROV-1 88.3 µM | K562 > 100 µM | KM12 > 100 µM | M14 > 100 µM | MOLT-4 > 100 µM | NCI-H23 > 100 µM | NCI/ADR-RES > 100 µM | OVCAR-3 > 100 µM | OVCAR-5 > 100 µM | SF-268 > 100 µM | SK-MEL-28 > 100 µM | SN12C > 100 µM | UACC-257 > 100 µM

CC(C)C1CC[C@H](C)C[C@@H]1OC(=O)C(C(=O)O[C@H]1C[C@@H](C)CCC1C(C)C)C(O)[C@@H]1OC(C)(C)O[C@H]1C1COC(C)(C)O1 (stereo partly drawn)
inactive: A549 22.3 µM | CCRF-CEM 15 µM | COLO 205 13.6 µM | HOP-62 19.7 µM | IGROV-1 16.8 µM | K562 11.1 µM | KM12 16.6 µM | M14 19 µM | MOLT-4 10.7 µM | NCI-H226 23.8 µM | NCI-H23 13.4 µM | NCI/ADR-RES 20.4 µM | OVCAR-3 19.9 µM | OVCAR-5 17.3 µM | RPMI-8226 16.7 µM | SF-268 19.9 µM | SK-MEL-28 18.3 µM | SN12C 16.5 µM | UACC-257 24.6 µM

NC(=O)CNC(=O)C1CC(O)CN1C(=O)OCc1ccccc1 (stereo not drawn) (Cbz-[ξHyp]-Gly-NH2)
inactive: A549 > 100 µM | CCRF-CEM > 100 µM | COLO 205 > 100 µM | HOP-62 > 100 µM | IGROV-1 > 100 µM | K562 > 100 µM | KM12 > 100 µM | M14 > 100 µM | MOLT-4 > 100 µM | NCI-H226 > 100 µM | NCI-H23 > 100 µM | NCI/ADR-RES > 100 µM | OVCAR-3 > 100 µM | OVCAR-5 > 100 µM | RPMI-8226 > 100 µM | SF-268 74.6 µM | SK-MEL-28 > 100 µM | SN12C > 100 µM | UACC-257 > 100 µM
